For 14 molecules, Kd results are on record in paper PMC10148881, “Recognition of an Ala-rich C-degron by the E3 ligase Pirh2” (Nature Communications, 2023).

In assay [1] the target is T1, Pirh2 (NTD + RING) (Homo sapiens, UniProt Q96PM5).
T1 construct: Pirh2 NTD + RING (residues 1–189); 8xHis-SUMO (N, cleaved yes); made in house; host or cells: E. coli BL21 (DE3)
T1 sequence (Q96PM5 1-189): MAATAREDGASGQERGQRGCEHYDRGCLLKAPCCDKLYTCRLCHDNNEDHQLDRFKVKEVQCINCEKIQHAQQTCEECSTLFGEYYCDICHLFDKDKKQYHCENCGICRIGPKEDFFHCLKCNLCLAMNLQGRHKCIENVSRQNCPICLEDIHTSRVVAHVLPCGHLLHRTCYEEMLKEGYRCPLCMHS
Put plainly: ITC of degron peptides with Pirh2 NTD + RING. The assay is classed as binding. An excerpt: The DNA fragments corresponding to human full-length Pirh2 (residues 1–261), Pirh2 NTD + RING (residues 1–189), Pirh2 NTD (residues 1–137), Pirh2 RING + CTD (residues 138–261), Pirh2 RING (residues 138–189) and Pirh2 CTD (residues […]) were cloned by seamless cloning into the pET28-MKH8SUMO vector (Addgene Plasmid #79526), which contains an 8× His-SUMO tag followed by a Tobacco etch virus (TEV) cleavage site. The DNA fragment of Pirh2 (residues 15–191)-linker (GSGSG)-polyAla (AAAAAA) was cloned into the pGEX vector, which contains a GST tag followed by a TEV cleavage site. The recombinant plasmids were transformed into E. coli BL21 (DE3) and the expression of the target proteins was induced with 0.2 mM isopropyl β-D-1-thiogalactopyranoside (IPTG) supplemented with 100 μM ZnCl2 at 18 °C overnight. Cells were harvested by centrifugation and resuspended in lysis buffer (20 mM Tris-HCl pH 8.5, 400 mM NaCl, 5% v/v glycerol, 10 μM ZnCl2 and 2 mM β-mercaptoethanol). The cells were lysed by sonication on ice and the lysates were clarified by centrifugation at 14,000 rpm for 40 min at 4 °C. The lysate containing GST tagged Pirh2-linker-polyAla was collected to incubate with GST beads for 1 h, and nonspecifically bound proteins were washed out by lysis buffer. The GST tag was proteolytically cleaved by adding the TEV protease to the GST beads overnight at 4 °C and the TEV protease was removed by passing through the Ni‐NTA column. The other supernatants were collected to incubate with Ni-NTA beads for 1 h at 4 °C. Nonspecifically bound proteins were washed out of Ni-NTA beads by washing buffer (20 mM Tris-HCl pH 8.5, 400 mM NaCl and 25 mM imidazole pH 8.5) and the fusion proteins were eluted by elution buffer (20 mM Tris-HCl pH 8.5, 400 mM NaCl and 300 mM imidazole pH 8.5). The SUMO tag was cleaved by TEV protease with a molar ration of 1: 20 in dialysis buffer (20 mM Tris-HCl pH 8.5 and 300 mM NaCl) at 4 °C overnight. The samples were reloaded onto the Ni-NTA column to remove the cleaved SUMO tag and TEV protease. Finally, all of the acquired proteins were further purified by size exclusion chromatography (Superdex 200 Increase 10/300 GL, GE healthcare), which was pre-equilibrated with gel-filtration buffer (20 mM Tris-HCl pH 7.5, 150 mM NaCl, 10 μM ZnCl2 and 1 mM DTT). Purified proteins were concentrated and stored at −80 °C for later use. Expression and purification of the mutants were performed in the same way as wild-type proteins.
Isothermal titration calorimetry (ITC) measurements were performed at 16 °C using a MicroCal PEAQ-ITC instrument (Malvern Panalytical). Proteins and peptides were prepared in an ITC buffer (20 mM Tris-HCl pH 7.5, 150 mM NaCl and 10 μM Zn^2+). ITC experiments were performed by titrating 1.5 μL (with the exception of the first injection of 0.5 μL) of peptides (0.6–1.0 mM) into cell containing 180–220 μM proteins, with a spacing time of 90 s and a reference power of 10 μcal s^−1. The titration data were analyzed using the one-site binding model from MicroCal PEAQ-ITC Analysis Software version 1.30. All ITC assays were repeated at least three times independently with similar results.

Assay [2] addresses T2, Pirh2 NTD (Homo sapiens, UniProt Q96PM5).
T2 construct: Pirh2 NTD (residues 1–137); 8xHis-SUMO (N, cleaved yes); made in house; host or cells: E. coli BL21 (DE3)
T2 sequence (Q96PM5 1-137): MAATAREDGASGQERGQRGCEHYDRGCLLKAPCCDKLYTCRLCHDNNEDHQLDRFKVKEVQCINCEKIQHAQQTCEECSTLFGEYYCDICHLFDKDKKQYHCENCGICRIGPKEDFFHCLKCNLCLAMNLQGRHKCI
Kind of assay: ITC of degron peptide with Pirh2 NTD. Particulars: 16 °C, 20 mM Tris-HCl pH 7.5, 150 mM NaCl, 10 μM Zn2+, one-site binding model, repeated at least three times. An excerpt:
(§1) The DNA fragments corresponding to human full-length Pirh2 (residues 1–261), Pirh2 NTD + RING (residues 1–189), Pirh2 NTD (residues 1–137), Pirh2 RING + CTD (residues 138–261), Pirh2 RING (residues 138–189) and Pirh2 CTD (residues 187–261) were cloned by seamless cloning into the pET28-MKH8SUMO vector (Addgene Plasmid #79526), which contains an 8× His-SUMO tag followed by a Tobacco etch virus (TEV) cleavage site. The DNA fragment of Pirh2 (residues 15–191)-linker (GSGSG)-polyAla (AAAAAA) was cloned into the pGEX vector, which contains a GST tag followed by a TEV cleavage site. The recombinant plasmids were transformed into E. coli BL21 (DE3) and the expression of the target proteins was induced with 0.2 mM isopropyl β-D-1-thiogalactopyranoside (IPTG) supplemented with 100 μM ZnCl2 at 18 °C overnight. Cells were harvested by centrifugation and resuspended in lysis buffer (20 mM Tris-HCl pH 8.5, 400 mM NaCl, 5% v/v glycerol, 10 μM ZnCl2 and 2 mM β-mercaptoethanol). The cells were lysed by sonication on ice and the lysates were clarified by centrifugation at 14,000 rpm for 40 min at 4 °C. […]
(§2) Isothermal titration calorimetry (ITC) measurements were performed at 16 °C using a MicroCal PEAQ-ITC instrument (Malvern Panalytical). […] The titration data were analyzed using the one-site binding model from MicroCal PEAQ-ITC Analysis Software version 1.30. […]

For assay [3], the target named is T3, Pirh2 S155D (Homo sapiens, UniProt Q96PM5, S155D).
T3 construct: Pirh2 NTD + RING (residues 1–189); 8xHis-SUMO (N, cleaved yes); made in house; host or cells: E. coli BL21 (DE3)
T3 sequence (Q96PM5 1-189 S155D): T1 sequence (Q96PM5 1-189) with S155D
Put plainly: ITC of Ala6/C-degron peptide with mutant Pirh2 S155D. To be noted: Fig. 4a. The assay is classed as binding.
Source text: as §1, §2

Assay [4] deals with T4, full-length Pirh2 (Homo sapiens, UniProt Q96PM5).
T4 construct: human full-length Pirh2 (residues 1–261); 8xHis-SUMO (N, cleaved yes); made in house; host or cells: E. coli BL21 (DE3)
T4 sequence (Q96PM5 1-261): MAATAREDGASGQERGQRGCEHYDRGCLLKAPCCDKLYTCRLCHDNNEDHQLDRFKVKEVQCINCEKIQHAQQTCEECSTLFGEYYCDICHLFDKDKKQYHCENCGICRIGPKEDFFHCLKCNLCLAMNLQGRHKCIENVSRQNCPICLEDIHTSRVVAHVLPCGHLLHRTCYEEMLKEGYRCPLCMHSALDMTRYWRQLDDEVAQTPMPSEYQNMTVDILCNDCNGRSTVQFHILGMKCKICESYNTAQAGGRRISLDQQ
Put plainly: ITC of degron peptide with full-length Pirh2. Particulars: 16 °C, 20 mM Tris-HCl pH 7.5, 150 mM NaCl, 10 μM Zn2+, one-site binding model, repeated at least three times.
Source text: as §1, §2

Assay [5] addresses T5, Pirh2 I107D (Homo sapiens, UniProt Q96PM5, I107D).
T5 construct: Pirh2 NTD + RING (residues 1–189); 8xHis-SUMO (N, cleaved yes); made in house; host or cells: E. coli BL21 (DE3)
T5 sequence (Q96PM5 1-189 I107D): T1 sequence (Q96PM5 1-189) with I107D
Kind of assay: ITC of Ala6/C-degron peptide with mutant Pirh2 I107D. It counts as binding. To be noted: Fig. 4a.
Source text: as §1, §2

Assay [6] deals with T6, Pirh2 R54A (Homo sapiens, UniProt Q96PM5, R54A).
T6 construct: Pirh2 NTD + RING (residues 1–189); 8xHis-SUMO (N, cleaved yes); made in house; host or cells: E. coli BL21 (DE3)
T6 sequence (Q96PM5 1-189 R54A): T1 sequence (Q96PM5 1-189) with R54A
Kind of assay: ITC of Ala6/C-degron peptide with mutant Pirh2 R54A. The assay is classed as binding. Particulars: Fig. 4a.
Source text: as §1, §2

Assay [7] concerns the target T7, Pirh2 D94A (Homo sapiens, UniProt Q96PM5, D94A).
T7 construct: Pirh2 NTD + RING (residues 1–189); 8xHis-SUMO (N, cleaved yes); made in house; host or cells: E. coli BL21 (DE3)
T7 sequence (Q96PM5 1-189 D94A): T1 sequence (Q96PM5 1-189) with D94A
Put plainly: ITC of Ala6/C-degron peptide with mutant Pirh2 D94A. It counts as binding. Particulars: Fig. 4a.
Source text: as §1, §2

[8] abbreviates: ITC, 16 °C, 20 mM Tris-HCl pH 7.5, 150 mM NaCl, 10 μM Zn2+, one-site binding model, repeated at least three times, NB = no detectable binding under our experimental conditions, read-out: KD.

Positions count from the first letter of the chain named. Read-outs that look alike come from different tables or passages of the source. Ends that are not written are not given here. Peptide text beside a SMILES is read from it. A value given as a limit tells only on which side of the number the result lay.

As for YKTSAAVA, in assay [1] (setting [8]), the equilibrium dissociation constant (Kd) was found to be 13 µM.
With YKTSAPAA, the Kd in assay [1] (setting [8]) is 0.9 µM.
As to YKTSAAAAAA [Ala6/C-degron], the Kd in assay [2] was 5.5 µM; in assay [3] it was 4.5 µM; in assay [4], 0.9 µM; in assay [1] (setting [8]), 0.5 µM; in assay [5], 9.1 µM; in assay [6] it was > 100 µM. Besides, binding in assay [7] was put at a Kd of 3 µM.
As for YKTSAKAA, in assay [1] (setting [8]), the Kd was 5.5 µM.
The same measure, in the same setting: the value for `C[C@H](N)C(=O)N[C@@H](C)C(=O)N[C@@H](C)C(=O)N[C@@H](C)C(=O)N[C@@H](C)C(=O)O` [AAAAA] was 2.5 µM.
With YKTSATAAAA, the Kd in assay [1] (setting [8]) stood at 0.5 µM.
With YKTSTAAAAA, in assay [1], the Kd worked out at 0.5 µM.
Regarding YKTSALAA, the Kd in assay [1] (setting [8]) was found to be 2.8 µM.
The same measure, in the same setting: the value for YKTSAAIA was 13 µM; that for YKTSSAAA was 4.5 µM.
The same measure, in the same setting: the figure for `C[C@H](N)C(=O)N[C@@H](C)C(=O)N[C@@H](C)C(=O)O` [AAA] is > 100 µM.
YKTSASAA: the dissociation constant Kd in assay [1] (setting [8]) turned out to be 3 µM.
As for `C[C@H](N)C(=O)N[C@@H](C)C(=O)N[C@@H](C)C(=O)N[C@@H](C)C(=O)O` [AAAA] (H-AAAA-OH), the Kd in assay [1] (setting [8]) came to 7.4 µM.
As for `C[C@H](N)C(=O)N[C@@H](C)C(=O)N[C@@H](C)C(=O)N[C@@H](C)C(=O)N[C@@H](C)C(=O)N[C@@H](C)C(=O)O` [AAAAAA], the Kd in assay [1] (setting [8]) turned out to be 0.9 µM.

One may read the Kd as a measure of binding affinity in units of concentration.
